Measured values: US10717733B2, “Haloallylamine indole and azaindole derivative inhibitors of lysyl oxidases and uses thereof” (PHARMAXIS LTD., priority 2016, dated 2020)
Counter-ions that a name gives are not always drawn.

Key:
[1] = target: Recombinant human MAO-B (Homo sapiens (Human), UniProt P27338); assay: Inhibition of human recombinant MAO-B; assay type: biochemical; settings: benzylamine 100 μM
How it was run: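 Recombinant human MAO-B used as enzyme source (0.06 mg/mL, stated concentration). Run as for the human SSAO/VAP-1 assay, except benzylamine substrate at 100 μM.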

[2] = target: human recombinant SSAO/VAP-1 (Homo sapiens (Human), UniProt Q16853); assay: Inhibition of human recombinant SSAO/VAP-1 amine oxidase activity; assay type: biochemical; settings: 30 min preincubation at 37° C., 600 μM benzylamine
How it was run: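 Purified SSAO/VAP-1 (residues 34-763, expressed in CHO Lec 8 cells; 0.25 μg/mL) preincubated 30 min at 37° C with compound in 0.1 M sodium phosphate pH 7.4. Reaction mix of 600 μM benzylamine, 120 μM Amplex Red and 1.5 U/mL HRP added; fluorescence (ex 565/em 590 nm) read every 2.5 min for 30 min; IC50 from kinetic slopes over 4-11 point curves.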

[3] = tested on: primary fibroblasts from confirmed cases of IPF; assay: Collagen cross-link formation in in vitro fibroblastic foci model of IPF; assay type: cell-based, human; settings: TGF-β1 stimulated foci, six weeks culture, FIGS. 7a and 7b
Text: The lung tissue of patients with idiopathic pulmonary fibrosis (IPF) is characterised by dense collections of myofibroblasts and extracellular matrix (ECM) termed ‘fibroblastic foci’. Using a novel in vitro model of fibroblastic foci (Jones et al., AJRCCM 191; 2015:A4912) the formation of lysyl oxidase (LOX) mediated collagen cross-links and the effects of the nonselective LOX inhibitor β-aminopropionitrile (BAPN) as well lysyl oxidase like-2 (LOXL2)-selective inhibitors were investigated.
Cultures of primary fibroblasts were grown out from clinical diagnostic biopsies of fibrotic lung and stored in liquid nitrogen. […]
To quantify collagen cross-links (Robins Biochem Soc Trans 2007; 35(5): 849-852; Saito et al Anal. Biochem. 1997; 253: 26-32; Sims, Avery & Bailey Methods in Molecular Biology 2000; vol 139: 11-26), cultures were treated with potassium borohydride to stabilise the reducible immature cross-links, and hydrolysed in 6N HCl at 100° C. for 16 hr. Total collagen content was assessed by hydroxyproline assay. Immature cross-links were assessed by LC/MS/MS and mature pyridinoline cross-links by ELISA. Cross-link data is expressed as moles of cross-link per mole collagen.

[4] = target: Bovine LOX (Bos taurus (Bovine), UniProt P33072); assay: LOX inhibition, peroxidase-coupled Amplex Red amine oxidase assay; assay type: biochemical; settings: 30 min preincubation at 37° C., putrescine substrate
How it was run: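 Bovine LOX in 1.2 M urea, 50 mM sodium borate pH 8.2 with 1 μM mofegiline and 0.5 mM pargyline; putrescine at twice KM (e.g. 20 mM for LOX) with Amplex Red/HRP. Fluorescence (ex 565/em 590 nm) read kinetically over 30 min at 37–45 °C; IC50 from slopes.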

[5] = target: Human LOXL2 (Homo sapiens (Human), UniProt Q9Y4K0); assay: LOXL2 inhibition, peroxidase-coupled Amplex Red amine oxidase assay; assay type: biochemical; settings: 30 min preincubation at 37° C., putrescine substrate
How it was run: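 Enzyme in 1.2 M urea, 50 mM sodium borate pH 8.2 with 1 μM mofegiline and 0.5 mM pargyline, preincubated 30 min at 37° C with compound (11-point CRC). Putrescine at twice KM (10 mM for LOXL2) with Amplex Red/HRP; fluorescence (ex 565, em 590) read kinetically 30 min; IC50 from slopes.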

human recombinant SSAO/VAP-1, sequence (Q16853 34-763): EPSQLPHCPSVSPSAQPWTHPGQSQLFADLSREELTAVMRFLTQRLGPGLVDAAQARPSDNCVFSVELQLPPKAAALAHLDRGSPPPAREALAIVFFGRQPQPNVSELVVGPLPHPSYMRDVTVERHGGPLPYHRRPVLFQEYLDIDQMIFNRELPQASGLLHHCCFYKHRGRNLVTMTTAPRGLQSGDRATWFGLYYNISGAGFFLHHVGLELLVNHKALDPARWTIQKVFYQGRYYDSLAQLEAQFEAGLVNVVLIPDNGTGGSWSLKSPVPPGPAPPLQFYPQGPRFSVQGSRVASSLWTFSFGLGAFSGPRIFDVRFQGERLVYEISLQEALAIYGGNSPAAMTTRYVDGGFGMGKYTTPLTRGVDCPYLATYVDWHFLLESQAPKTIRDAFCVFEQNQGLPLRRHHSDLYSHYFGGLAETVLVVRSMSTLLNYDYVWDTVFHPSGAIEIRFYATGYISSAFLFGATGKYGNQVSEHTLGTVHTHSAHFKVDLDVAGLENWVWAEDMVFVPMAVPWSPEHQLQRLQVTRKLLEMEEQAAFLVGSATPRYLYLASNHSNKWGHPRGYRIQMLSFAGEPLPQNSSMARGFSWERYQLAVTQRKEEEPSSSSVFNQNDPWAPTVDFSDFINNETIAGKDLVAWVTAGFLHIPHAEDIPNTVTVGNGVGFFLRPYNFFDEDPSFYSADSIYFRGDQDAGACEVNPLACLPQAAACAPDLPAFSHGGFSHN
Recombinant human MAO-B, sequence (P27338 whole entry): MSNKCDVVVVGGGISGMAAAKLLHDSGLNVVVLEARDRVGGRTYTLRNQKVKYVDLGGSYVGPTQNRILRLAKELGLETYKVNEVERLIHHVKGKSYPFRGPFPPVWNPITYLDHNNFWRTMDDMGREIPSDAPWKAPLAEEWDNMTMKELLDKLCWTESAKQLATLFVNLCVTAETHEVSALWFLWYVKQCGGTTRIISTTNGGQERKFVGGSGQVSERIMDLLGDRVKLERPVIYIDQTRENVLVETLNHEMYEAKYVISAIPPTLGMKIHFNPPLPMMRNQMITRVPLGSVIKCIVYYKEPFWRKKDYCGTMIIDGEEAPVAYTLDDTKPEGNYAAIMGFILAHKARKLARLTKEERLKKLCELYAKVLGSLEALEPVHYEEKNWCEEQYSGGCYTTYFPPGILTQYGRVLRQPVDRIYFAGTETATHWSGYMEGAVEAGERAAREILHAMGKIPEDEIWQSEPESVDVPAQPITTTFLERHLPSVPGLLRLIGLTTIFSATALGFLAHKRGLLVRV
Bovine LOX, sequence (P33072 170-418): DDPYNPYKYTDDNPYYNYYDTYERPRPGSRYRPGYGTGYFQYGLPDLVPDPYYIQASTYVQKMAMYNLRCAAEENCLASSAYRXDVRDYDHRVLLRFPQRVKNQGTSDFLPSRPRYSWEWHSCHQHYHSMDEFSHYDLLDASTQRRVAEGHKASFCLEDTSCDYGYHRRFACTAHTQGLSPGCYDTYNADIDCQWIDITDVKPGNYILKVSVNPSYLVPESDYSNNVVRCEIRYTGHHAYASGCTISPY
Human LOXL2, sequence (Q9Y4K0 26-774): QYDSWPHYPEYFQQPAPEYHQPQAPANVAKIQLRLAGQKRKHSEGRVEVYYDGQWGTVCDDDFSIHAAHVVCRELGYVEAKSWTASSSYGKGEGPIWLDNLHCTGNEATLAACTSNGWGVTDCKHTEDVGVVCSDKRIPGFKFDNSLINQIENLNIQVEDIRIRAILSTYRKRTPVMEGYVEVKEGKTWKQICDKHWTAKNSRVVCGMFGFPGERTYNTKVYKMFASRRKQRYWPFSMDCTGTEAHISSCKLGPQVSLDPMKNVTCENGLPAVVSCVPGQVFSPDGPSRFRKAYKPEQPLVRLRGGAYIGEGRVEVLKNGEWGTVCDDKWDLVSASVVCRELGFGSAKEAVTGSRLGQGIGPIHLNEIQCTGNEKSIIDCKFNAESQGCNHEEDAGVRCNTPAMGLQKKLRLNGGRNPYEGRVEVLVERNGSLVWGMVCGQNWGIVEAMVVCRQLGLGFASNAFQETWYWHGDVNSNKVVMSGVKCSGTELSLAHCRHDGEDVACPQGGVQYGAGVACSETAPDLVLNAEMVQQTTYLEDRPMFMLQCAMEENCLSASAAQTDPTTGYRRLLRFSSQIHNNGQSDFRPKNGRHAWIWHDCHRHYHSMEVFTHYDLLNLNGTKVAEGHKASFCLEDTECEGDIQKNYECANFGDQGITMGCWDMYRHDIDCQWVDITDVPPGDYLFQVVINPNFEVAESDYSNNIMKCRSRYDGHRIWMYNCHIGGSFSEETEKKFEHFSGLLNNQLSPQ

Row | SMILES | IC50 [1] | IC50 [2] | collagen cross-link formation (immature and mature cross-links) [3] | IC50 [4] | IC50 [5]
1 | N#CCCN [BAPN, β-aminopropionitrile, reference compound] | > 3000 nM | > 3000 nM | reduced cross-link formation in a concentration dependent manner | > 1000 nM | < 1000 nM
2 | Cc1c(-c2cccc(S(=O)(=O)N(C)C)c2)c2nc(C(C)(F)F)ccc2n1C/C(F)=C/CN [Compound 111, (Z)-3-(1-(4-amino-2-fluorobut-2-en-1-yl)-5-(1,1-difluoroethyl)-2-methyl-1H-pyrrolo[3,2-b]pyridin-3-yl)-N,N-dimethylbenzenesulfonamide Dihydrochloride] | > 3000 nM | > 3000 nM |  | > 300 nM | < 300 nM
